Measured values reported in PMC9791066, “Investigations into the antibacterial effects and potential mechanism of gambogic acid and neogambogic acid” (Frontiers in Microbiology, 2022).

Tests used:
[1] = test system: E. coli BAS849 transformed with pQE80L or pQE80L-EfaUPPS variants; assay: Ex-vivo growth inhibition assay; assay type: cell-based, Escherichia coli; conditions: compound at 8 μg/mL
Protocol: The E. faecalis ATCC29212 undecaprenyl pyrophosphate synthase genes, and the L91A and L146A mutation fragments were cloned into the BamH I and Hind III digested pQE80Lvector, respectively. The resulting plasmids were transformed into E. coli BAS849, respectively. The strain transformed with the empty vector pQE80L was used as a negative control. A single colony of each transformant was inoculated into LB broth supplemented with 100 μg/mL ampicillin and incubated at 200 rpm, 37°C overnight. After diluted the cultures to 7 × 10^5 CFU/mL by LB broth, 5 μl of each diluted cultures were dripped onto a LB agar plate supplemented with IPTG (0.5 mM), and GA or NGA (8 μg/mL) followed by cultivation at 37°C overnight, and then imaged. In the meantime, another 5 μl of each diluted cultures were diluted in 100 ul LB and coated on the relevant plates to check for bacterial CFUs.

EfaUPPS (K47A) = target: T1, EfaUPPS (K47A) (Enterococcus faecalis, UniProt Q831K9, K53A); assay: UPPS inhibition assay, EfaUPPS K47A mutant; assay type: biochemical; conditions: K47A mutant compared with wild-type
T1 construct: His tag; made in house; host or cells: E. coli BL21(DE3)
T1 sequence (Q831K9 whole entry K53A): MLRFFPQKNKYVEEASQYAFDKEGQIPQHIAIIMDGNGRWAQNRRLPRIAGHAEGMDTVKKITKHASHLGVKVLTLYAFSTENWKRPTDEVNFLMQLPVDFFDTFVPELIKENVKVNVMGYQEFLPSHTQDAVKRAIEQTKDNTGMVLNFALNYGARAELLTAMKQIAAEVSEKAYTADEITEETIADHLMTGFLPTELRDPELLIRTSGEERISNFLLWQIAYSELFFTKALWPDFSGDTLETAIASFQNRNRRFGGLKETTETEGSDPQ
Protocol: The EfaUPPS site-directed mutagenesis was generated using QuikChange site-directed mutagenesis kit (Agilent) according to the manufacturer’s instructions. The purification of site-directed mutation was using a similar strategy as described above.
The UPPS inhibition assay was carried out by measuring the fluorescence of the reaction mixture in a black 96-well microtiter plate (Corning, United States). […] After the indicated incubation period, the reaction was terminated by the addition of 10 μl of 0.5 M EDTA solution. Transferred 50 μl of the reaction mixture into a new 96-well microtiter plate, and quenched with an equal volume of Master Reaction Mix (Pyrophosphate Assay Kit, Sigma-Aldrich, USA) for 30 min. The UPPS inhibitory activity was performed by calculating the fluorescence percentage through determining the fluorescence absorbance of reaction mixture at 316 and 456 nm. Data of UPPS inhibitory activities were plotted versus compound concentrations on a semi-log scale using GraphPad Prism7. All the results were the means of at least three biological replicates.

E. faecalis infection = assay: E. faecalis infected mouse model; assay type: in vivo, C57BL/6 J mice; conditions: oral dose (40 μM), 19 days
Protocol: All animal studies had been reviewed and approved by the Animal Ethical and Welfare Committee of Nanjing University of Chinese Medicine. 8-week-old male C57BL/6 J mice were housed in groups of four mice per cage in a 12/12-h day light cycle with free access to food and water under conditions of controlled humidity (50 ± 5%) and temperature (22 ± 2°C). Mice were adaptively raised for a week before experiments. To explore the effects of GA and NGA on E. faecalis, the mice were randomly divided into four groups including control, E. faecalis, E. faecalis + GA and E. faecalis + NGA. Mice received an oral dose (40 μM) of GA or NGA from 30 min after E. faecalis (1 × 10^10 CFU) treatment for 19 days to sacrifice. The body weight of the mice was monitored daily. Afterwards mice spleens were collected and spleen weight was measured upon being sacrificed.
Spleen tissue sections of mice were fixed in 4% paraformaldehyde, dehydrated in alcohol, embedded in paraffin and then sliced into thin 5 μm sections. The tissues were then stained with hematoxylin & eosin (H&E). The tissue images were observed under an inverted microscope (Vectra 3.0, PerkinElmer, United States).
Retro-orbital blood was collected from the mice in asepsis tubes before dissection. The blood was centrifuged at 3500 g for 20 min to extract serum, which was stored at −20°C awaiting subsequent analyses. TNF-α-levels in serum was measured by ELISA according to the instructions of the manufacturer (eBioscience, United States).
Total RNA was extracted from the spleen of mice, and then the cDNA was synthesized with HiScript® II Q RT SuperMix for qPCR (Vazyme, China). qPCR was performed using the LightCycler®96 (Roche, Swiss). The qPCR primers of TNF-α (Forward: 5’-[…]-3′ and Reverse: 5’-[…]-3′) were designed and synthesized by GENERAY Biotechnology (Shanghai, China). GAPDH was used as the reference gene.

[2] = test system: clinical strains of S. aureus, E. faecalis, L. monocytogenes; assay: MIC against clinical isolates; assay type: cell-based; conditions: 10 more clinical strains of each species
Excerpt: Enterococcus faecalis ATCC29212 and Staphylococcus aureus ATCC29213 were purchased from the […]. Methicillin-resistant Staphylococcus aureus (MRSA), Listeria monocytogenes ATCC19117, Escherichia coli ATCC25922, Escherichia coli BAS849, DH5α and BL21 were from Lin lab storage. The clinical strains used in this study were isolated and identified from Affiliated Hospital of Nanjing University of Chinese Medicine and Nanjing Drum Tower Hospital, China. All the bacteria strains were routinely cultured in Luria-Bertani (LB) broth media (1% tryptone, 0.5% yeast extract, and 1% NaCl) at 37°C, except as noted.
Antibacterial activities were performed by examining the minimal inhibitory concentrations (MICs), which was determined by a microtiter broth dilution method as previously described ([Cotsonas King and Wu, 2009]), with minor modifications. Briefly, 96-well plates (Corning) were inoculated with 100 μl of LB broth per well containing 7 × 10^5 CFU/mL bacteria, followed by adding 100 μl of LB broth containing two-fold serial dilutions of the test compounds. Tetracycline (Tet) and ampicillin (Amp) and viridicatumtoxins were used as the positive controls. After 18 h of incubation, the MIC was determined to be the lowest concentration without visible bacterial growth. The results were the averages of at least three biological replicates.

[3] = overexpression of wild-type EfaUPPS

SMILES	growth of E. coli BAS849 ([1]; empty vector pQE80L)	growth of E. coli BAS849 [1, 3]	growth of E. coli BAS849 ([1]; pQE80L-EfaUPPS L91A)	growth of E. coli BAS849 ([1]; pQE80L-EfaUPPS L146A)	IC50 values of K47A mutant (in words) (EfaUPPS (K47A))	effect of mutation on inhibitory effect of compound on EfaUPPS enzyme activity (EfaUPPS (K47A))	body weight of E. faecalis infection mice (E. faecalis infection)	spleen inflammation (H&E spleen slides) (E. faecalis infection)	splenomegaly (spleen weight) (E. faecalis infection)	growth inhibitory activity (MICs) against clinical strains [2]	TNF-α mRNA in spleen (qPCR) (E. faecalis infection)	TNF-α-levels in serum (ELISA) (E. faecalis infection; vs E. faecalis group)
CC(C)=CCC[C@]1(C)C=Cc2c(O)c3c(c(CC=C(C)C)c2O1)O[C@]12C(=C[C@@H]4C[C@H]1C(C)(C)O[C@@]2(C/C=C(/C)C(=O)O)C4=O)C3=O [GA, gambogic acid]	completely inhibited	rescued the cell growth	moderate resistance	moderate resistance	increased	no obvious difference	no observable effect	reduced signs of inflammation	significantly relieved splenomegaly	high potency in growth inhibitory activity		
CC(C)=CCC[C@]1(C)CC(O)c2c(O)c3c(c(CC=C(C)C)c2O1)O[C@]12C(=C[C@@H]4C[C@H]1C(C)(C)O[C@@]2(C/C=C(/C)C(=O)O)C4=O)C3=O (stereo partly drawn) [NGA, neogambogic acid]	completely inhibited	rescued the cell growth	moderate resistance	moderate resistance		significantly reduced	no observable effect	reduced signs of inflammation	significantly relieved splenomegaly	high potency in growth inhibitory activity	significant downregulation	significantly reduced
